Patent EP0901466B1, “BIPHENYLSULFONAMIDE MATRIX METALLOPROTEINASE INHIBITORS” (WARNER-LAMBERT COMPANY, priority 1996, dated 1997)

The compounds below were run against stromelysin catalytic domain (Homo sapiens, UniProt P08254) (assay: stromelysin catalytic domain hydrolysis of thiopeptolide (SCD (T))). Conditions: not given.
stromelysin catalytic domain, sequence (P08254 100-272 limits assumed): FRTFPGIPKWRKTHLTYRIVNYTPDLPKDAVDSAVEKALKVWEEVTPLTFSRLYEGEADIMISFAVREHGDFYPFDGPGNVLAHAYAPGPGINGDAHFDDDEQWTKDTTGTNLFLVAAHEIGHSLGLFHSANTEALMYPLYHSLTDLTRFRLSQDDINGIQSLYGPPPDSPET
Assay type: biochemical
Work on `CC(C)[C@H](NS(=O)(=O)c1ccc(-c2ccc(Cl)cc2)cc1)C(=O)O` [Example 2, (S)-2-(4'-Chloro-biphenyl-4-sulfonylamino)-3-methyl-butyric acid] yielded an IC50 of 100 nM. `CC(C)[C@H](NS(=O)(=O)c1ccc(-c2ccc(C#N)cc2)cc1)C(=O)O` [Example 5, (S)-2-(4'-Cyano-biphenyl-4-sulfonylamino)-3-methyl-butyric acid] gave an IC50 of 9 nM. Compound `COc1ccc(-c2ccc(S(=O)(=O)N[C@H](C(=O)O)C(C)C)cc2)cc1` [Example 15, (S)-2-(4'-Methoxy-biphenyl-4-sulfonylamino)-3-methyl-butyric acid] has an IC50 of 8 nM.

Same assay, conditions: thiopeptolide substrate; read-out: SCD (T) (IC50)
With `CC(C)[C@H](NS(=O)(=O)c1ccc(-c2ccc([N+](=O)[O-])cc2)cc1)C(=O)O` [Example 3, (S)-3-Methyl-2-(4'-nitro-biphenyl-4-sulfonylamino)-butyric acid] the IC50 was 31 nM. With `CC(C)[C@H](NS(=O)(=O)c1ccc(-c2ccc(N)cc2)cc1)C(=O)O` [Example 4, (S)-2-(4'-Amino-biphenyl-4-sulfonylamino)-3-methyl-butyric acid] the IC50 was 67 nM. `CC(C)[C@H](NS(=O)(=O)c1ccc(-c2cccc(Br)c2)cc1)C(=O)O` [Example 7, (S)-2-(3'-Bromo-biphenyl-4-sulfonylamino)-3-methyl-butyric acid] showed an IC50 of 347 nM. Work on `CC(C)[C@H](NS(=O)(=O)c1ccc(-c2ccc(Br)cc2F)cc1)C(=O)O` [Example 8, (S)-2-(4'-Bromo-2'-fluoro-biphenyl-4-sulfonylamino)-3-methyl-butyric acid] yielded an IC50 of 30 nM. With `O=C(O)[C@H](Cc1ccccc1)NS(=O)(=O)c1ccc(-c2ccc(Br)cc2)cc1` [Example 10, (S)-2-(4'-Bromo-biphenyl-4-sulfonylamino)-3-phenyl-propionic acid] the IC50 was 26 nM. With `O=C(O)CNS(=O)(=O)c1ccc(-c2ccc(Br)cc2)cc1` [Example 12, (4'-Bromo-biphenyl-4-sulfonylamino)-acetic acid] the IC50 was 60 nM. Compound `C[C@H](NS(=O)(=O)c1ccc(-c2ccc(Br)cc2)cc1)C(=O)O` [Example 13, (S)-2-(4'-Bromo-biphenyl-4-sulfonylamino)-propionic acid] has an IC50 of 28 nM. `CC(C)C[C@H](NS(=O)(=O)c1ccc(-c2ccc(Br)cc2)cc1)C(=O)O` [Example 14, (S)-2-(4'-Bromo-biphenyl-4-sulfonylamino)-4-methyl-pentanoic acid] showed an IC50 of 13 nM. With `CC(C)[C@H](NS(=O)(=O)c1ccc(-c2ccc(F)cc2)cc1)C(=O)O` [Example 16, (S)-2-(4'-Fluoro-biphenyl-4-sulfonylamino)-3-methyl-butyric acid] the IC50 was 14 nM. In the case of `CC(C)[C@H](NS(=O)(=O)c1ccc(-c2cccc(F)c2)cc1)C(=O)O` [Example 17, (S)-2-(3'-Fluoro-biphenyl-4-sulfonylamino)-3-methyl-butyric acid], the IC50 is reported as 27 nM. Compound `Cc1ccc(-c2ccc(S(=O)(=O)N[C@H](C(=O)O)C(C)C)cc2)cc1` [Example 18, (S)-3-Methyl-2-(4'-methyl-biphenyl-4-sulfonylamino)-butyric acid] has an IC50 of 12 nM.

What follows are compounds tested against T1, full-length collagenase (Homo sapiens, UniProt P03956) (assay: full-length collagenase hydrolysis of thiopeptolide substrate (FLC)). Conditions: not given.
T1 sequence (P03956 100-469): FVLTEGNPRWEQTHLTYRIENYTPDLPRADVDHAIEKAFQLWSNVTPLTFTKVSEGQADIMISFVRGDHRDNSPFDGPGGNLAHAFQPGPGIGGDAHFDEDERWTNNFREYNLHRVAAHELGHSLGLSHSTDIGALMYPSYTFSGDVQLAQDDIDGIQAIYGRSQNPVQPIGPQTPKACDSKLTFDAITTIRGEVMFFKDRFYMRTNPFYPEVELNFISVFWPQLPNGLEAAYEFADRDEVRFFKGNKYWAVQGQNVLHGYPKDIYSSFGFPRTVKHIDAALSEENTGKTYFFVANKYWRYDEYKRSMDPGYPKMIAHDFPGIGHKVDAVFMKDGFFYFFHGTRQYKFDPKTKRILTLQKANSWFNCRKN
Assay type: biochemical
From the text: (§1) The compounds were additionally evaluated for their ability to inhibit full-length collagenase hydrolysis of thiopeptolide substrate (FLC) and full-length gelatinase B (FLGB) hydrolysis of thiopeptolide.
Compound `CC(C)[C@H](NS(=O)(=O)c1ccc(-c2ccc(Cl)cc2)cc1)C(=O)O` [Example 2, (S)-2-(4'-Chloro-biphenyl-4-sulfonylamino)-3-methyl-butyric acid] has an IC50 of 7500 nM.

These compounds were tested against T2, full-length gelatinase B (Homo sapiens, UniProt P14780) (assay: full-length gelatinase B hydrolysis of thiopeptolide (FLGB)). Conditions: thiopeptolide substrate.
T2 construct: full-length gelatinase B (FLGB) hydrolysis of thiopeptolide
T2 sequence (P14780 94-707, species assumed): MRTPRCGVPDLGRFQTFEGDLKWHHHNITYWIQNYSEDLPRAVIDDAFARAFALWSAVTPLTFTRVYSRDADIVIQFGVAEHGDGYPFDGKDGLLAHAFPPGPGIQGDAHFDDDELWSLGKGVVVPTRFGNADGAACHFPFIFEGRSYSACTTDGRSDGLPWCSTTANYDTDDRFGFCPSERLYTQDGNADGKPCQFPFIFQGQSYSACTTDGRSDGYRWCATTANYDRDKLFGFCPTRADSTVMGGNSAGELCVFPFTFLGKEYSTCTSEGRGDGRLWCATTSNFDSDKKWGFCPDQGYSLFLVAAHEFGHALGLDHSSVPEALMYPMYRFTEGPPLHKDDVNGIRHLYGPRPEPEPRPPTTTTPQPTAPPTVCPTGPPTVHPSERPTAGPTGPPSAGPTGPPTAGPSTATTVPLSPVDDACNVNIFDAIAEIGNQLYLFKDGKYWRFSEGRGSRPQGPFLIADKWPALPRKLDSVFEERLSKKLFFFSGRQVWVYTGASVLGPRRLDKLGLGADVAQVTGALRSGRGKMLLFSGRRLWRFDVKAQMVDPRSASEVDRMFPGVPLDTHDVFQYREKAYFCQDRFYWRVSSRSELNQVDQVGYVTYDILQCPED
Assay type: biochemical
From the text: as §1
`CC(C)[C@H](NS(=O)(=O)c1ccc(-c2ccc(Br)cc2)cc1)C(=O)O` [Example 1, (S)-2-(4'-Bromo-biphenyl-4-sulfonylamino)-3-methyl-butyric acid] showed an IC50 of 8340 nM. For `CC(C)[C@H](NS(=O)(=O)c1ccc(-c2ccc(Cl)cc2)cc1)C(=O)O` [Example 2, (S)-2-(4'-Chloro-biphenyl-4-sulfonylamino)-3-methyl-butyric acid], the IC50 was 23000 nM.
